Reference: BindingDB's records for doi:10.1021/jm00061a009 (National Institute of Diabetes and Digestive and Kidney …, 1993)

Assay: Inhibition of [3H](+)-pentazocine binding to sigma receptor of guinea pig brain homogenates

SMILES | Ki [nM]
c1ccc2sc(C3(N4CCCCCC4)CCCCC3)cc2c1 [1-(1-Benzo[b]thiophen-2-yl-cyclohexyl)-azepane] | 674
c1ccc2sc(C3(N4CCCCC4)CCCC3)cc2c1 [1-(1-Benzo[b]thiophen-2-yl-cyclopentyl)-piperidine] | 1100
NC1(c2cc3ccccc3s2)CCCCCC1 [1-Benzo[b]thiophen-2-yl-cycloheptylamine] | 9170
NC1(c2cc3ccccc3s2)CCCC1 [1-Benzo[b]thiophen-2-yl-cyclopentylamine] | 1730
NC1(c2cc3ccccc3s2)CCCCC1 [1-Benzo[b]thiophen-2-yl-cyclohexylamine] | 3170
c1ccc2sc(C3(N4CCCCCC4)CCCCCC3)cc2c1 [1-(1-Benzo[b]thiophen-2-yl-cycloheptyl)-azepane] | 2710
c1ccc2sc(C3(N4CCCC4)CCCCC3)cc2c1 [1-(1-Benzo[b]thiophen-2-yl-cyclohexyl)-pyrrolidine] | 168
c1ccc2sc(C3(N4CCCCC4)CCCCCC3)cc2c1 [1-(1-Benzo[b]thiophen-2-yl-cycloheptyl)-piperidine] | 2230
c1ccc2sc(C3(N4CCCC4)CCCCCC3)cc2c1 [1-(1-Benzo[b]thiophen-2-yl-cycloheptyl)-pyrrolidine] | 720
c1ccc2sc(C3(N4CCCCCC4)CCCC3)cc2c1 [1-(1-Benzo[b]thiophen-2-yl-cyclopentyl)-azepane] | 2890
c1ccc2sc(C3(N4CCCC4)CCCC3)cc2c1 [1-(1-Benzo[b]thiophen-2-yl-cyclopentyl)-pyrrolidine] | 125
